Results published in ChEMBL document CHEMBL1255512, “Pyrazolo[1,5-a]pyrimidine acetamides: 4-Phenyl alkyl ether derivatives as potent ligands for the 18 kDa translocator protein (TSPO)” (Bioorg Med Chem Lett, 2010).

Columns and labels:
[1] = target: 5-hydroxytryptamine receptor 7 (Homo sapiens) (UniProt P34969); assay: Inhibition of 5-HT7 receptor at 10 uM
[2] = target: T1, Muscarinic acetylcholine receptor M2 (Homo sapiens) (UniProt P08172); assay: Inhibition of M2 muscarinic receptor at 10 uM
T1 sequence (whole entry): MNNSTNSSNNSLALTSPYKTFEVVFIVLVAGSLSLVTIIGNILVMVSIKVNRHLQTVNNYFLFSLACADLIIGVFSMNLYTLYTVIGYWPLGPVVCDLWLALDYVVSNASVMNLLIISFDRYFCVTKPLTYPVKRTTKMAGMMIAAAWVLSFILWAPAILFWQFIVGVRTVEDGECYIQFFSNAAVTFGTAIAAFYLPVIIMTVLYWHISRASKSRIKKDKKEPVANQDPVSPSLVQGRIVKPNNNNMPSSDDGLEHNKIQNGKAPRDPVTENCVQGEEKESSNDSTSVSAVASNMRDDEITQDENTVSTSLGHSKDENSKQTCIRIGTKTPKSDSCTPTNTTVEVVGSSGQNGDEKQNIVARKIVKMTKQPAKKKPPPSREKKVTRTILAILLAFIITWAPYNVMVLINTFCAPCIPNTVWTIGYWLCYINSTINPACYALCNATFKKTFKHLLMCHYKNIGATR

[3] = target: 5-hydroxytryptamine receptor 6 (Homo sapiens) (UniProt P50406); assay: Inhibition of 5-HT6 receptor at 10 uM
Chain of 5-hydroxytryptamine receptor 6 (Homo sapiens) (P50406 whole entry): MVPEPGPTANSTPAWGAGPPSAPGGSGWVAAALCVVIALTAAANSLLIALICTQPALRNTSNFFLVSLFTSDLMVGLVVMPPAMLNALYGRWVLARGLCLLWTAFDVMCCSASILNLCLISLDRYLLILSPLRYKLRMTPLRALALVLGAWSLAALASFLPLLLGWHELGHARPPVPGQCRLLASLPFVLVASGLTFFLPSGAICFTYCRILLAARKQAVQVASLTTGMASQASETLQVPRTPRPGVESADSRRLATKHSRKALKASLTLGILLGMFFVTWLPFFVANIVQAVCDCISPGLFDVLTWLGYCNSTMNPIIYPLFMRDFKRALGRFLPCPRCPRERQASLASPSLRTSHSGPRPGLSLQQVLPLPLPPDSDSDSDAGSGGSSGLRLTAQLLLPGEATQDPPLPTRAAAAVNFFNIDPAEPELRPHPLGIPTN

[4] = target: T2, 5-hydroxytryptamine receptor 2C (Homo sapiens) (UniProt P28335); assay: Inhibition of 5-HT2C receptor at 10 uM
T2 sequence (whole entry): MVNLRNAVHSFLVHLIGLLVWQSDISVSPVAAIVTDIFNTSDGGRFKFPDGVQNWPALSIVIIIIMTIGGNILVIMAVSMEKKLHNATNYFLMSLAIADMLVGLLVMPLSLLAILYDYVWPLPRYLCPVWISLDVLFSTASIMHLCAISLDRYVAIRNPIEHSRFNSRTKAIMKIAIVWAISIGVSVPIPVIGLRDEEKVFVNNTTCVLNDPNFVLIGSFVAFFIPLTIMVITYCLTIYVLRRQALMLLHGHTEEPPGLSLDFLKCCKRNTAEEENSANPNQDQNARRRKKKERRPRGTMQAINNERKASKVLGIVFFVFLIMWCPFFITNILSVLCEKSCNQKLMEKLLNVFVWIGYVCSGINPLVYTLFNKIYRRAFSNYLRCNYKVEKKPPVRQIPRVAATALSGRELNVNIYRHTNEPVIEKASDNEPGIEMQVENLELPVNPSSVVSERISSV

[5] = target: Histamine H1 receptor (Homo sapiens) (UniProt P35367); assay: Inhibition of H1 receptor at 10 uM
Chain of Histamine H1 receptor (Homo sapiens) (P35367 whole entry): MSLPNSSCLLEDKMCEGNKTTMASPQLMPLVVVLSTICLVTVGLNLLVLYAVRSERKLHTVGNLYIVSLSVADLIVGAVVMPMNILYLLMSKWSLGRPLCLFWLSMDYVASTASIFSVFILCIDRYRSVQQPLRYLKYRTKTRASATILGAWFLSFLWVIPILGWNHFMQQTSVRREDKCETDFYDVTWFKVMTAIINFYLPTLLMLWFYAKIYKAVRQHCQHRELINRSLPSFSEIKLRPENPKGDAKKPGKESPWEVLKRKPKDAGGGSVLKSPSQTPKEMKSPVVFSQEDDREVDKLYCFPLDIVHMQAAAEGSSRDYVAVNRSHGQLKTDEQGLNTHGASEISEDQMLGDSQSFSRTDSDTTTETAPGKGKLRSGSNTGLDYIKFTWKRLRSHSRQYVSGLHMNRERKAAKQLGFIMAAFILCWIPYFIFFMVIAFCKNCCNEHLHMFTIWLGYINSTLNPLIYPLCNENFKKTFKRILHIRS

[6] = target: Histamine H2 receptor (Homo sapiens) (UniProt P25021); assay: Inhibition of H2 receptor at 10 uM
Chain of Histamine H2 receptor (Homo sapiens) (P25021 whole entry): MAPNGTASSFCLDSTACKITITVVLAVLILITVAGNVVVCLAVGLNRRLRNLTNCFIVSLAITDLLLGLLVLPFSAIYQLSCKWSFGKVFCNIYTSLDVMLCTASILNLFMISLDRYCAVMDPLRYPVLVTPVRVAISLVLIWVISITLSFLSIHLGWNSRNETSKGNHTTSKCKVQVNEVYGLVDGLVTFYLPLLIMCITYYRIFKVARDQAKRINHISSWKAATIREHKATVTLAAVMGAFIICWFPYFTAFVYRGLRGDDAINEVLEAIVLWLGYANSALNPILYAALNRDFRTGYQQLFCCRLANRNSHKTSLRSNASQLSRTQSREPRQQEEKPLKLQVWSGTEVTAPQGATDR

[7] = target: D(2) dopamine receptor (Homo sapiens) (UniProt P14416); assay: Inhibition of D2 dopamine receptor at 10 uM
Chain of D(2) dopamine receptor (Homo sapiens) (P14416 whole entry): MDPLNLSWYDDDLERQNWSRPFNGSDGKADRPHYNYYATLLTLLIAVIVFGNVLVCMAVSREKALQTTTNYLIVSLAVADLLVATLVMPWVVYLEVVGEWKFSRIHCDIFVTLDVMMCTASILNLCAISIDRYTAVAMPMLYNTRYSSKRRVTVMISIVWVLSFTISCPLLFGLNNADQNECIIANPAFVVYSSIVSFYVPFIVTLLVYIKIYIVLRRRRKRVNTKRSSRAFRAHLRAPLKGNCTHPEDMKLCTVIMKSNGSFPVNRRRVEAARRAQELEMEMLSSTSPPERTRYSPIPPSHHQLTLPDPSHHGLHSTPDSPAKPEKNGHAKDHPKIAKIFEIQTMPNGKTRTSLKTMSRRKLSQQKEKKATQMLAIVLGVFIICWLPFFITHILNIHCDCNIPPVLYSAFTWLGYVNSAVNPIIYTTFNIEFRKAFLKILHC

[8] = target: T3, Muscarinic acetylcholine receptor M4 (Homo sapiens) (UniProt P08173); assay: Inhibition of M4 muscarinic receptor at 10 uM
T3 sequence (whole entry): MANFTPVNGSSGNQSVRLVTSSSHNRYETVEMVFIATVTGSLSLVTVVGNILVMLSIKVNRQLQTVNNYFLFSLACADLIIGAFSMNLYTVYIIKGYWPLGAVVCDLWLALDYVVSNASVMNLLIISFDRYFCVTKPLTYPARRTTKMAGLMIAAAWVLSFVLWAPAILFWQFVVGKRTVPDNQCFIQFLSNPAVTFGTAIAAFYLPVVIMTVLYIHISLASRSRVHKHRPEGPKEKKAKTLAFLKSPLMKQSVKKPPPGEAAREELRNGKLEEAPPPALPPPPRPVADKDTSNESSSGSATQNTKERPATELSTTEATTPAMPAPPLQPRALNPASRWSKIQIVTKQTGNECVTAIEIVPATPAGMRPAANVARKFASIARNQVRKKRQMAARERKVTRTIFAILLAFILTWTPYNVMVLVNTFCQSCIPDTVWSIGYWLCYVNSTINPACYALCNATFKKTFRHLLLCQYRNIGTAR

[9] = target: 5-hydroxytryptamine receptor 2A (Homo sapiens) (UniProt P28223); assay: Inhibition of 5-HT2A receptor at 10 uM
Chain of 5-hydroxytryptamine receptor 2A (Homo sapiens) (P28223 whole entry): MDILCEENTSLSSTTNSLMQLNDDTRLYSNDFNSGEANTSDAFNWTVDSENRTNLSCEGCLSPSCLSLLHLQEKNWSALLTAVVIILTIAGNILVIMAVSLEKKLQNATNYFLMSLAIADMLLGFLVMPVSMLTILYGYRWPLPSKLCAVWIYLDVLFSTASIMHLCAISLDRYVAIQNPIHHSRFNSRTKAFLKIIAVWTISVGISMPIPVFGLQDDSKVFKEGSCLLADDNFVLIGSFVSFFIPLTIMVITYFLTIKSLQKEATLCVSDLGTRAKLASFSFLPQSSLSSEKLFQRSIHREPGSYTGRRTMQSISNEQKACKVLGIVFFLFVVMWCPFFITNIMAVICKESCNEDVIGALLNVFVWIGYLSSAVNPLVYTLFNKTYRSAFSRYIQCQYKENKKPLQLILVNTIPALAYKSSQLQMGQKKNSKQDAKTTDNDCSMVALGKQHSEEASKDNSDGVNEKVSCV

[10] = target: Mu-type opioid receptor (Homo sapiens) (UniProt P35372); assay: Inhibition of mu opioid receptor at 10 uM
Chain of Mu-type opioid receptor (Homo sapiens) (P35372 whole entry): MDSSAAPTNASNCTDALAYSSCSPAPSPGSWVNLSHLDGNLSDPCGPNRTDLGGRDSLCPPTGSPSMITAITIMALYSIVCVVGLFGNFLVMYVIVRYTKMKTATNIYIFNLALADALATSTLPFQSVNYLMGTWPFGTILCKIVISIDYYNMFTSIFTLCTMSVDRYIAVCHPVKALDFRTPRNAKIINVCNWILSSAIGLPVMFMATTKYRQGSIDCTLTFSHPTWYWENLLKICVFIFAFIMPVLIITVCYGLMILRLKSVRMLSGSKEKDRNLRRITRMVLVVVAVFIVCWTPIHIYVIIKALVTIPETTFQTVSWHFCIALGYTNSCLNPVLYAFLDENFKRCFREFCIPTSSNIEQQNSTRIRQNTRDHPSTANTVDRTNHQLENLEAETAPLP

[11] = target: Histamine H3 receptor (Homo sapiens) (UniProt Q9Y5N1); assay: Inhibition of H3 receptor at 10 uM
Chain of Histamine H3 receptor (Homo sapiens) (Q9Y5N1 whole entry): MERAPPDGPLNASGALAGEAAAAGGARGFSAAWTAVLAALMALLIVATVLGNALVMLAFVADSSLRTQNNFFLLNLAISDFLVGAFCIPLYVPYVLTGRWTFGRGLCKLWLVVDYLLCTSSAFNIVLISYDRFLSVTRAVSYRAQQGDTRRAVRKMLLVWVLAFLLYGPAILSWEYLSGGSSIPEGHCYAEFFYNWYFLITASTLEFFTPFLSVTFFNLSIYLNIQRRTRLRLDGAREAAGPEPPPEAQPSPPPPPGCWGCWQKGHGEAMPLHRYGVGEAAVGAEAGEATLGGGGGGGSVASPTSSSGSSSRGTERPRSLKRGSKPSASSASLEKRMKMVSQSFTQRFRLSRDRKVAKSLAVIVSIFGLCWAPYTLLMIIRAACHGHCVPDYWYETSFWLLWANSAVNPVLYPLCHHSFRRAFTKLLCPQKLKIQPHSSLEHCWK

[12] = target: T4, Alpha-2C adrenergic receptor (Homo sapiens) (UniProt P18825); assay: Inhibition of Alpha-2C adrenergic receptor at 10 uM
T4 sequence (whole entry): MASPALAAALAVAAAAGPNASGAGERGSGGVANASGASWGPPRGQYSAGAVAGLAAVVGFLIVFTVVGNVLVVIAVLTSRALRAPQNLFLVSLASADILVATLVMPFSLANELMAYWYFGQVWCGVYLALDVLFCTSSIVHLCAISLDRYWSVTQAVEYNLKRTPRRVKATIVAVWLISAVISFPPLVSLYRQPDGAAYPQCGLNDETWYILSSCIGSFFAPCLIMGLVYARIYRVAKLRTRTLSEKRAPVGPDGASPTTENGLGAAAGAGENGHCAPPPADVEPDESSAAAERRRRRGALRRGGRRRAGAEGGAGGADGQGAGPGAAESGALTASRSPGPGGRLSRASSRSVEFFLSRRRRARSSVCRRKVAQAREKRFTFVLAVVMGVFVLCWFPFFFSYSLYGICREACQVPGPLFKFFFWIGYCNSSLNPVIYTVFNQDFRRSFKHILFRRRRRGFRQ

[13] = target: T5, Muscarinic acetylcholine receptor M1 (Homo sapiens) (UniProt P11229); assay: Inhibition of M1 muscarinic receptor at 10 uM
T5 sequence (whole entry): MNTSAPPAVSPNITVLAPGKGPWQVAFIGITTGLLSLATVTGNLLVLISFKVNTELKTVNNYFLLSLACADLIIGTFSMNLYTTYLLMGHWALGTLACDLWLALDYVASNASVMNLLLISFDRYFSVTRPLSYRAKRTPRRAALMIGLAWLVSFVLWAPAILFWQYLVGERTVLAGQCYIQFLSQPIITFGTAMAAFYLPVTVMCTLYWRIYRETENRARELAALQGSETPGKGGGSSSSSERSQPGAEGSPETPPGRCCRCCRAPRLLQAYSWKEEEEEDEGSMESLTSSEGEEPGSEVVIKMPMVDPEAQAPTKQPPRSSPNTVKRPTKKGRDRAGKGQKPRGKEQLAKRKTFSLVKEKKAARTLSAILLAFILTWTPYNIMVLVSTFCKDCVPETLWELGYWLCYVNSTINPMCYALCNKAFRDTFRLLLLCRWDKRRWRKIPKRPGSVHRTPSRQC

[14] = target: Beta-3 adrenergic receptor (Homo sapiens) (UniProt P13945); assay: Inhibition of beta3 adrenergic receptor at 10 uM
Chain of Beta-3 adrenergic receptor (Homo sapiens) (P13945 whole entry, looked up): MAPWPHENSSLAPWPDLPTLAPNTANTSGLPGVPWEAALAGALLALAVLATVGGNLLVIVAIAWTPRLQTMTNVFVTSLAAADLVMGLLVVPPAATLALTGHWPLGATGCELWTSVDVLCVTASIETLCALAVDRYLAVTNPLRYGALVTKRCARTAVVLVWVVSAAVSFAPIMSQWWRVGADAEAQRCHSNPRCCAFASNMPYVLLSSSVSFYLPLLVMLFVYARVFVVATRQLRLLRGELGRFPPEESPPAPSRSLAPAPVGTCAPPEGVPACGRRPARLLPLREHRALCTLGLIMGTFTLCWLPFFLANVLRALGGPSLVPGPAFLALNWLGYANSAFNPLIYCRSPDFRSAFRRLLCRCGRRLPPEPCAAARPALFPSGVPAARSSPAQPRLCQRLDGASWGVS

[15] = target: 5-hydroxytryptamine receptor 1E (Homo sapiens) (UniProt P28566); assay: Inhibition of 5HT1E receptor at 10 uM
Chain of 5-hydroxytryptamine receptor 1E (Homo sapiens) (P28566 whole entry): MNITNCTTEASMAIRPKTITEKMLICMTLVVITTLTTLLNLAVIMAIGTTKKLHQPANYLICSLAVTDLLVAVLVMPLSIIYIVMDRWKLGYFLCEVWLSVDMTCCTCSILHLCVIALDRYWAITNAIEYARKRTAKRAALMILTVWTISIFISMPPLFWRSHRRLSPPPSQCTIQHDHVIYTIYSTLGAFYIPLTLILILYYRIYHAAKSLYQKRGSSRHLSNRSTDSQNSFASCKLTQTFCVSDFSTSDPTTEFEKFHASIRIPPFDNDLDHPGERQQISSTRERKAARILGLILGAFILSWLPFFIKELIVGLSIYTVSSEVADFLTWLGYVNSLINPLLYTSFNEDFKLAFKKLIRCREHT

Measured: inhibition

Chain of 5-hydroxytryptamine receptor 7 (Homo sapiens) (P34969 whole entry): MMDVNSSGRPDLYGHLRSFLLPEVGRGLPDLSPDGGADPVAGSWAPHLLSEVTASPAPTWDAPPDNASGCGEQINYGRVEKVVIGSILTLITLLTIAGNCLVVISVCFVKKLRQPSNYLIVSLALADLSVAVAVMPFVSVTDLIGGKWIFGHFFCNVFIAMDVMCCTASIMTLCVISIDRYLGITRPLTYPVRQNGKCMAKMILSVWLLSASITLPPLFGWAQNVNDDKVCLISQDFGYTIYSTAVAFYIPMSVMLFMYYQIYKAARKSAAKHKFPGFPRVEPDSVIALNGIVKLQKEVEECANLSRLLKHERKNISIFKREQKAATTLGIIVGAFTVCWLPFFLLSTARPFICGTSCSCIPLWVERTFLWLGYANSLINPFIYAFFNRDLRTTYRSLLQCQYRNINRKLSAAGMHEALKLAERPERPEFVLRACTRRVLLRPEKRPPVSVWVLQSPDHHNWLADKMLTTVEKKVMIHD

CCOc1ccc(-c2nn3c(C)cc(C)nc3c2CC(=O)N(CC)CC)cc1
< 50%: all assays above

CCCCOc1ccc(-c2nn3c(C)cc(C)nc3c2CC(=O)N(CC)CC)cc1
< 50%: all assays above

CCCOc1ccc(-c2nn3c(C)cc(C)nc3c2CC(=O)N(CC)CC)cc1
< 50%: all assays above

C#CCOc1ccc(-c2nn3c(C)cc(C)nc3c2CC(=O)N(CC)CC)cc1
< 50%: all assays above
